Data from PubChem BioAssay (NCI).
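Cultured in 96-well plates, cells were exposed to test compound for 48 hours across five concentrations. Definition used: TGI = concentration required for complete inhibition of growth.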

What was measured:
Test in all cases: inhibition of tumour cell growth, NCI panel, 48 h
M14 melanoma = system: M14 melanoma
OVCAR-5 ovarian = system: OVCAR-5 ovarian
CAKI-1 renal = system: CAKI-1 renal
HOP-92 NSCLC = system: HOP-92 NSCLC
HCT-15 colon = system: HCT-15 colon
SF-268 CNS = system: SF-268 CNS
EKVX NSCLC = system: EKVX NSCLC
SK-MEL-2 melanoma = system: SK-MEL-2 melanoma
K-562 leukemia = system: K-562 leukemia
HS 578T breast = system: HS 578T breast
MDA-N = system: MDA-N
MCF7 breast = system: MCF7 breast
SW-620 colon = system: SW-620 colon
NCI-H23 lung = system: NCI-H23 lung
SNB-75 CNS = system: SNB-75 CNS
786-0 renal = system: 786-0 renal
UACC-62 melanoma = system: UACC-62 melanoma
NCI-H522 lung = system: NCI-H522 lung
HOP-62 NSCLC = system: HOP-62 NSCLC
RXF 393 renal = system: RXF 393 renal
PC-3 prostate = system: PC-3 prostate
SK-MEL-5 melanoma = system: SK-MEL-5 melanoma
A498 renal = system: A498 renal
HT29 colon = system: HT29 colon
SF-539 CNS = system: SF-539 CNS
IGROV1 ovarian = system: IGROV1 ovarian
MDA-MB-435 = system: MDA-MB-435
OVCAR-4 ovarian = system: OVCAR-4 ovarian
A549 NSCLC = system: A549 NSCLC
HCT-116 colon = system: HCT-116 colon
MALME-3M melanoma = system: MALME-3M melanoma
TK-10 renal = system: TK-10 renal
DU-145 prostate = system: DU-145 prostate
MOLT-4 leukemia = system: MOLT-4 leukemia
BT-549 breast = system: BT-549 breast
CCRF-CEM leukemia = system: CCRF-CEM leukemia
OVCAR-8 ovarian = system: OVCAR-8 ovarian
U251 CNS = system: U251 CNS
UACC-257 melanoma = system: UACC-257 melanoma
T-47D breast = system: T-47D breast
LOX IMVI melanoma = system: LOX IMVI melanoma
HL-60(TB) leukemia = system: HL-60(TB) leukemia
SK-OV-3 ovarian = system: SK-OV-3 ovarian
SF-295 CNS = system: SF-295 CNS
COLO 205 colon = system: COLO 205 colon
NCI/ADR-RES ovarian = system: NCI/ADR-RES ovarian
MDA-MB-231 breast = system: MDA-MB-231 breast
NCI-H226 lung = system: NCI-H226 lung
OVCAR-3 ovarian = system: OVCAR-3 ovarian
SN12C renal = system: SN12C renal
ACHN renal = system: ACHN renal
SR leukemia = system: SR leukemia
KM12 colon = system: KM12 colon
SK-MEL-28 melanoma = system: SK-MEL-28 melanoma
RPMI-8226 leukemia = system: RPMI-8226 leukemia
NCI-H460 lung = system: NCI-H460 lung
SNB-19 CNS = system: SNB-19 CNS
UO-31 renal = system: UO-31 renal
HCC-2998 colon = system: HCC-2998 colon

Measured: TGI

CC(=O)C=NCC(=O)O
not listed: UO-31 renal | HCC-2998 colon
> 100 µM: all other assays above

COc1ccc(P2(=S)SP(=S)(c3ccc(Cl)cc3)S2)cc1 (configuration not stated)
not listed: K-562 leukemia
> 100 µM: all other assays above

COc1ccc2c(Cc3c4ccccc4cc4ccccc34)cncc2c1O
14 µM: UACC-257 melanoma
> 22 µM: HCT-15 colon
> 71.7 µM: T-47D breast
50.1 µM: EKVX NSCLC
34.4 µM: COLO 205 colon
0.546 µM: SF-539 CNS
12.8 µM: K-562 leukemia
16.1 µM: HCT-116 colon
> 41.6 µM: SNB-19 CNS
15.3 µM: M14 melanoma
8.95 µM: MDA-MB-231 breast
7.71 µM: U251 CNS
11.7 µM: NCI-H226 lung
23.4 µM: 786-0 renal
5.74 µM: OVCAR-8 ovarian
3.94 µM: NCI-H460 lung
11 µM: IGROV1 ovarian
0.622 µM: MDA-MB-435
17.5 µM: SK-MEL-2 melanoma
55 µM: MALME-3M melanoma
22.4 µM: HOP-62 NSCLC
> 59.9 µM: PC-3 prostate
17 µM: RPMI-8226 leukemia
29.4 µM: SNB-75 CNS
9.17 µM: NCI/ADR-RES ovarian
72.3 µM: SK-MEL-28 melanoma
> 74.2 µM: OVCAR-4 ovarian
34.9 µM: UO-31 renal
53.1 µM: BT-549 breast
> 39.8 µM: A549 NSCLC
3.04 µM: CCRF-CEM leukemia
3.05 µM: SK-MEL-5 melanoma
> 38.2 µM: MCF7 breast
> 21.6 µM: RXF 393 renal
8.69 µM: KM12 colon
8.36 µM: HL-60(TB) leukemia
85.3 µM: NCI-H23 lung
> 57.4 µM: OVCAR-5 ovarian
8.5 µM: LOX IMVI melanoma
> 44.2 µM: UACC-62 melanoma
27.3 µM: ACHN renal
8.82 µM: MOLT-4 leukemia
> 40.5 µM: SK-OV-3 ovarian
> 22.4 µM: DU-145 prostate
13.2 µM: HOP-92 NSCLC
0.551 µM: SR leukemia
8.35 µM: SF-295 CNS
21.2 µM: NCI-H522 lung
> 100 µM: SF-268 CNS | HS 578T breast | SW-620 colon
17.6 µM: TK-10 renal
8.97 µM: OVCAR-3 ovarian
33.5 µM: HT29 colon
36.3 µM: CAKI-1 renal
23.9 µM: A498 renal
> 63.9 µM: SN12C renal
4.55 µM: MDA-N

CCC(CCC(C)C1CCC2C3CC=C4CC(OC5OC(CO)C(O)C(O)C5O)CCC4(C)C3CCC12C)C(C)C (configuration not stated)
not listed: K-562 leukemia | SNB-75 CNS
> 100 µM: all other assays above

c1ccc(CN2CCC3(CC2)SSC2(CCN(Cc4ccccc4)CC2)SS3)cc1
62 µM: EKVX NSCLC
not listed: CCRF-CEM leukemia | HL-60(TB) leukemia
> 100 µM: all other assays above

CSc1c(C(=O)Nc2ccc(C)cc2)c(N)n(N)c(=O)c1C#N
not listed: HOP-92 NSCLC | HOP-62 NSCLC | SF-295 CNS | ACHN renal
> 100 µM: all other assays above

COC(=O)C(Cc1ccccc1)NP(=O)(O)OCC1OC(n2cc(I)c(=O)[nH]c2=O)CC1O (configuration not stated)
not listed: OVCAR-5 ovarian | SK-MEL-2 melanoma | RXF 393 renal | HCC-2998 colon
> 100 µM: all other assays above
